Several values for one entry are separate records, joined by “and”; a condition that tells them apart may be missing. Identical values can stand only once.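 Growth conditions: 96-well plates. Treatment: test compound, 48 hours, 5 concentrations. Analysis: linear interpolation between bracketing concentrations; unreached endpoints set to highest concentration. Here, GI50 denotes the concentration required for 50% inhibition of growth.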 Activity calls are given as the source filed them. No stated cut-off is given here; in the data, active = GI50 up to about 1.1 µM and inactive = higher.

Test systems include A549; CAKI-1; EKVX; HCT-15; KM12; M14; MDA-MB-231; MDA-MB-435; MDA-N; NCI-H226; OVCAR-4; SF-295; SK-MEL-28; SK-MEL-2; SK-OV-3; SN12C; SNB-19; TK-10; SNB-75.
What all share (experiment): inhibition of tumour cell growth, NCI panel, 48 h

Take `COC(=O)c1c(C#N)c(N)nc2c1CCC2`: the GI50 in the experiment on A549 is > 100 µM (inactive); in the experiment on CAKI-1, > 100 µM (inactive); with EKVX, > 100 µM (inactive); in the experiment on HCT-15 it was more than 100 µM; in the experiment on KM12, > 100 µM (inactive); with M14, > 100 µM (inactive). Besides, the GI50 is > 100 µM (inactive) with MDA-MB-231; > 100 µM (inactive) in the experiment with MDA-MB-435; > 100 µM (inactive) with MDA-N; > 100 µM (inactive) in the experiment with NCI-H226; 93.3 µM (inactive) in the experiment with OVCAR-4; > 100 µM (inactive) in the experiment with SF-295. Besides, the GI50 with SK-MEL-28, in the experiment on SK-MEL-2, in the experiment with SK-OV-3, with SN12C, in the experiment with SNB-19 and in the experiment on TK-10 was > 100 µM (inactive) each time.

With `O=C(O)c1ccc(CNCc2ccccc2)cc1`, the GI50 with A549 is > 100 µM (inactive); in the experiment with CAKI-1, > 100 µM (inactive); with EKVX, > 100 µM (inactive); in the experiment on HCT-15 it was more than 100 µM; in the experiment with KM12 it was > 100 µM (inactive); with M14, > 100 µM (inactive). Moreover, the GI50 in the experiment with MDA-MB-231, with MDA-MB-435, in the experiment on MDA-N, with NCI-H226, in the experiment with OVCAR-4 and in the experiment with SF-295 was > 100 µM (inactive) each time. For the same compound, the GI50 with SK-MEL-28, with SK-MEL-2, in the experiment on SK-OV-3, in the experiment on SN12C, in the experiment with SNB-19 and in the experiment with TK-10 was > 100 µM (inactive) throughout.

As to `CCOC(=O)[C@@]12NN=N[C@@H]1[C@H]1CO[C@H](c3ccccc3)N1C2=O`, the GI50 is 16.9 µM (inactive) with A549; 11 µM (inactive) in the experiment on CAKI-1; 13.9 µM (inactive) with EKVX; 6.62 µM in the experiment on HCT-15; 13.1 µM (inactive) in the experiment with KM12; 6.18 µM (inactive) in the experiment on M14. Further, the GI50 in the experiment on MDA-MB-231 is 12.2 µM (inactive); in the experiment with MDA-MB-435, 11.1 µM (inactive); in the experiment with MDA-N, 11.1 µM (inactive); in the experiment on OVCAR-4, 16.5 µM (inactive); in the experiment on SF-295 it was 11.6 µM (inactive); in the experiment on SK-MEL-28 it was 5.25 µM (inactive). Further, the GI50 in the experiment on SK-MEL-2 is 7.21 µM (inactive); with SK-OV-3, 18.2 µM (inactive); in the experiment on SN12C it was 11.1 µM (inactive); in the experiment on SNB-19, 10.2 µM (inactive); in the experiment on TK-10, 16.8 µM (inactive).

With `CC(=O)O[C@H]1CC[C@@H](OC(C)=O)[C@H]2[C@H](O)[C@H](O)[C@@H]1n1c(=O)n(-c3ccccc3)c(=O)n12`, the GI50 in the experiment on A549 was > 100 µM (inactive); in the experiment with CAKI-1, > 100 µM (inactive); in the experiment on EKVX, > 100 µM (inactive); in the experiment on HCT-15, more than 100 µM; in the experiment on KM12, > 100 µM (inactive); in the experiment with M14, > 100 µM (inactive). The GI50 in the experiment on MDA-MB-231, in the experiment with MDA-MB-435, in the experiment with MDA-N, in the experiment on NCI-H226, with OVCAR-4 and in the experiment with SF-295 was > 100 µM (inactive) each time. Besides, the GI50 with SK-MEL-28, in the experiment with SK-MEL-2, in the experiment on SN12C, in the experiment on SNB-19 and in the experiment on TK-10 was > 100 µM (inactive) in each case.

Turning to `CCOC(=O)c1c(SCCO)n(-c2ccccc2)c(=S)n(-c2ccccc2)c1=O`, the GI50 with A549 is > 100 µM (inactive); in the experiment with CAKI-1 it was > 100 µM (inactive); in the experiment on EKVX, > 100 µM (inactive); with HCT-15, more than 100 µM; in the experiment with KM12 it was > 100 µM (inactive); in the experiment on M14, > 100 µM (inactive). Also, the GI50 in the experiment on MDA-MB-435, in the experiment with MDA-N, in the experiment on NCI-H226, in the experiment on OVCAR-4, in the experiment on SF-295 and in the experiment on SK-MEL-28 was > 100 µM (inactive) each time. For the same compound, the GI50 with SK-MEL-2, with SK-OV-3, in the experiment with SN12C, with SNB-19, with SNB-75 and with TK-10 was > 100 µM (inactive) throughout.

Regarding `Cc1cc(C)c(N)c(CO)c1`, the GI50 in the experiment with A549 is 42.8 µM (inactive) and 73.6 µM (inactive); in the experiment with CAKI-1 it was 4.25 µM (inactive) and 2.87 µM (inactive); in the experiment on EKVX, > 100 µM (inactive) and 81.1 µM (inactive); in the experiment with HCT-15, more than 100 µM; with KM12, > 100 µM (inactive); with M14, > 100 µM (inactive). The GI50 in the experiment with MDA-MB-231 was > 100 µM (inactive); in the experiment on MDA-MB-435 it was > 100 µM (inactive); with MDA-N it was > 100 µM (inactive); in the experiment on OVCAR-4 it was 78.9 µM (inactive) and 57.4 µM (inactive); in the experiment on SF-295, > 73.6 µM (inactive) and > 74.8 µM (inactive); in the experiment with SK-MEL-28 it was > 100 µM (inactive). In addition, the GI50 in the experiment with SK-MEL-2, in the experiment with SK-OV-3, with SN12C, in the experiment with SNB-19 and with SNB-75 was > 100 µM (inactive) in each case.

As to `CC(C)[Si](OC1=CCC[C@H]2NC(=O)[C@@H](Cc3ccc([N+](=O)[O-])cc3)[C@@]12C)(C(C)C)C(C)C`, the GI50 in the experiment with A549 is 1.85 µM (inactive); with CAKI-1, 13.2 µM (inactive); in the experiment on EKVX it was 6.37 µM (inactive); in the experiment with HCT-15, 4.25 µM; in the experiment with KM12 it was 3.73 µM (inactive); in the experiment with M14, 12.5 µM (inactive). In addition, the GI50 is 6.5 µM (inactive) with MDA-MB-231; 4.98 µM (inactive) with MDA-N; 4.47 µM (inactive) in the experiment with OVCAR-4; 4.59 µM (inactive) with SF-295; 12.8 µM (inactive) with SK-MEL-2; 10.1 µM (inactive) in the experiment on SK-OV-3. Besides, the GI50 is 2.02 µM (inactive) in the experiment on SN12C, 12.5 µM (inactive) in the experiment on SNB-19, 10.4 µM (inactive) in the experiment on SNB-75 and 11 µM (inactive) in the experiment on TK-10.

Take `N#Cc1c(N2CCC(O)C2)c2ccccc2n2c1nc1ccccc12` (centres undefined): the GI50 is > 100 µM (inactive) in the experiment with A549; 37.9 µM (inactive) in the experiment with CAKI-1; > 100 µM (inactive) with EKVX; more than 100 µM in the experiment on HCT-15; > 100 µM (inactive) in the experiment on KM12; > 100 µM (inactive) in the experiment on M14. Moreover, the GI50 was 19.4 µM (inactive) with MDA-MB-231; > 100 µM (inactive) in the experiment with MDA-MB-435; > 100 µM (inactive) in the experiment on MDA-N; 20.5 µM (inactive) with OVCAR-4; 31 µM (inactive) with SF-295; > 100 µM (inactive) in the experiment with SK-MEL-28. The GI50 with SK-MEL-2 is 43.4 µM (inactive); in the experiment with SN12C, 72.4 µM (inactive); in the experiment with SNB-19, 32.1 µM (inactive); in the experiment with SNB-75 it was 25.1 µM (inactive); with TK-10, 51.1 µM (inactive).

For the compound `Cc1ccc(/N=N/c2cc(=O)[nH]c(=O)[nH]2)cc1C`, the GI50 with A549 was 18.5 µM (inactive); in the experiment on EKVX, 17.9 µM (inactive); in the experiment on HCT-15, 2.85 µM; in the experiment on KM12 it was 12.1 µM (inactive); in the experiment on M14, 14.2 µM (inactive); with MDA-MB-231, 11.9 µM (inactive). In addition, the GI50 with MDA-MB-435 was 11.2 µM (inactive); in the experiment on MDA-N it was 12.2 µM (inactive); with NCI-H226, 19.1 µM (inactive); with OVCAR-4, 13.9 µM (inactive); in the experiment on SF-295, 15.3 µM (inactive); in the experiment on SK-MEL-28, 15.6 µM (inactive). Moreover, the GI50 is 4.74 µM (inactive) in the experiment with SN12C, 17.2 µM (inactive) in the experiment with SNB-19, 3.9 µM (inactive) with SNB-75 and 19.4 µM (inactive) in the experiment with TK-10.

As for `C=Cc1c(C)c(O)cc2c1-c1ccc(O)c(C)c1CC2`, the GI50 in the experiment with A549 was 19 µM (inactive); in the experiment with CAKI-1, 13.9 µM (inactive); in the experiment on EKVX it was 1.97 µM (inactive); with HCT-15, 12.2 µM; in the experiment on KM12, 14.3 µM (inactive); with M14, 20.9 µM (inactive). Further, the GI50 was 23.2 µM (inactive) in the experiment on MDA-MB-231; 14.1 µM (inactive) in the experiment on MDA-MB-435; 13.6 µM (inactive) with MDA-N; 17.3 µM (inactive) in the experiment on NCI-H226; 17.1 µM (inactive) in the experiment with OVCAR-4; 14.9 µM (inactive) in the experiment on SF-295. In addition, the GI50 in the experiment with SK-MEL-28 was 16.2 µM (inactive); with SK-MEL-2, 17.1 µM (inactive); with SK-OV-3, 17 µM (inactive); in the experiment with SN12C it was 17.5 µM (inactive); in the experiment with SNB-19 it was 24.5 µM (inactive); with TK-10 it was 13.1 µM (inactive).

As to `C=C(C)[C@H]1CC23C(=O)C(C(=O)C(C)C)=C(O)[C@](C)(C[C@H]2C1(C)C)C3=O` [LALIBINONE B], the GI50 in the experiment on A549 is 20.3 µM (inactive); in the experiment on CAKI-1, 22 µM (inactive); in the experiment with EKVX, 11 µM (inactive); with HCT-15 it was 17.2 µM; with KM12, 19.6 µM (inactive); with M14 it was 16.1 µM (inactive). Also, the GI50 is 15.6 µM (inactive) in the experiment on MDA-MB-231; 16.4 µM (inactive) with MDA-MB-435; 18.9 µM (inactive) in the experiment with MDA-N; 16.2 µM (inactive) in the experiment on NCI-H226; 12.6 µM (inactive) in the experiment on OVCAR-4; 15.1 µM (inactive) in the experiment with SF-295. The GI50 in the experiment with SK-MEL-28 was 15 µM (inactive); in the experiment on SK-MEL-2, 15.9 µM (inactive); with SN12C it was 17 µM (inactive); with SNB-19 it was 25.8 µM (inactive); in the experiment with TK-10, 20.2 µM (inactive).

Values taken from ChEMBL document CHEMBL1201862, “PubChem BioAssay data set” (2004).
